# Measurements: US5493007A, “Platelet aggregation inhibitors having high specificity for GPIIBIIIA” (Genentech, Inc., priority 1994, dated 1996)
# Values joined by “and” are separate entries in the source; they are usually repeats but may differ in a detail not shown here. Equal values may be shown once. Read-outs that look alike come from different tables or passages of the source. *1 amine or outer side, *2 acyl side, *3 side chain or, on linkers, in order; H or OH if unused. Where a SMILES comes first, the peptide text is derived from it. Bridges are numbered along the chain shown (N, C = ends). [ ]: non-standard residue; d: D form. The star is where a group is joined. Ethylenediamine = C(CN[*:2])N[*:1]; Aad = N[C@@H](CCCC(=O)O)C(=O)O; Pen = CC(C)(S)[C@H](N)C(=O)O; dOrn = NCCC[C@@H](N)C(=O)O; Orn = NCCC[C@H](N)C(=O)O; NH(CH2)5NH2 = NCCCCCN*; NH(CH2)4NH2 = NCCCCN*; NH(CH2)3NH2 = NCCCN*; Ava = NCCCCC(=O)O
# Experiments:
# [1] = biological target: human platelet rich plasma (PRP) (Homo sapiens, UniProt P05106+P08514); assay: In Vitro Human Platelet Aggregation Assay; type: cell-based; settings: for platelet aggregation inhibition potency, result in words: human platelet aggregation in vitro
# Chain of human platelet rich plasma (PRP) (P08514 32-1039): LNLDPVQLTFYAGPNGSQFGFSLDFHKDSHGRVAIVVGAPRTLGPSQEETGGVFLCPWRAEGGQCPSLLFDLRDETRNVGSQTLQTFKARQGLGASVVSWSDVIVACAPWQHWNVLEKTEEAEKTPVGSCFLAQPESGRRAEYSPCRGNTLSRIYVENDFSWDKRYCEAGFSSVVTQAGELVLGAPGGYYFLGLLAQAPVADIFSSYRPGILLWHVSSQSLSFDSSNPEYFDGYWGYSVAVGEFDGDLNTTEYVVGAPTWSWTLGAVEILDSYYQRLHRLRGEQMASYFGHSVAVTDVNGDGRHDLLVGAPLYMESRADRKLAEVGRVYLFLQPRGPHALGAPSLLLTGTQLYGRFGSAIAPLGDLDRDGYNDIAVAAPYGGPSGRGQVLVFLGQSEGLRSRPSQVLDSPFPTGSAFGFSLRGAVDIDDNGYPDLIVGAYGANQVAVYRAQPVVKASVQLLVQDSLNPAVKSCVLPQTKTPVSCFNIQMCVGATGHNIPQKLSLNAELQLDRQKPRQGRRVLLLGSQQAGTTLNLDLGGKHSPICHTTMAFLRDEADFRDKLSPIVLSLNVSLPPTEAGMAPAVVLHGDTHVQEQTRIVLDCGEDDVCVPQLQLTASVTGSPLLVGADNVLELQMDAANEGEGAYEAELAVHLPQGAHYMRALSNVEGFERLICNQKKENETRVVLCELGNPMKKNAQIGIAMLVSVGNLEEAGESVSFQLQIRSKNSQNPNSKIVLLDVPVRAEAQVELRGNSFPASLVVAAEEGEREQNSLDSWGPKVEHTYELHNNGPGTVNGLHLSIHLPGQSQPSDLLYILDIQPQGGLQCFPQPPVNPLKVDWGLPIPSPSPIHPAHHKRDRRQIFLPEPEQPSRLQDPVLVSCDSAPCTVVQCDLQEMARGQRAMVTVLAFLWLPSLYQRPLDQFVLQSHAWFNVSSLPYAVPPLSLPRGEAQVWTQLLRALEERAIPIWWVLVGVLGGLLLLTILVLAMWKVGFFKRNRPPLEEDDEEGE
# Chain of human platelet rich plasma (PRP) (P05106 27-788): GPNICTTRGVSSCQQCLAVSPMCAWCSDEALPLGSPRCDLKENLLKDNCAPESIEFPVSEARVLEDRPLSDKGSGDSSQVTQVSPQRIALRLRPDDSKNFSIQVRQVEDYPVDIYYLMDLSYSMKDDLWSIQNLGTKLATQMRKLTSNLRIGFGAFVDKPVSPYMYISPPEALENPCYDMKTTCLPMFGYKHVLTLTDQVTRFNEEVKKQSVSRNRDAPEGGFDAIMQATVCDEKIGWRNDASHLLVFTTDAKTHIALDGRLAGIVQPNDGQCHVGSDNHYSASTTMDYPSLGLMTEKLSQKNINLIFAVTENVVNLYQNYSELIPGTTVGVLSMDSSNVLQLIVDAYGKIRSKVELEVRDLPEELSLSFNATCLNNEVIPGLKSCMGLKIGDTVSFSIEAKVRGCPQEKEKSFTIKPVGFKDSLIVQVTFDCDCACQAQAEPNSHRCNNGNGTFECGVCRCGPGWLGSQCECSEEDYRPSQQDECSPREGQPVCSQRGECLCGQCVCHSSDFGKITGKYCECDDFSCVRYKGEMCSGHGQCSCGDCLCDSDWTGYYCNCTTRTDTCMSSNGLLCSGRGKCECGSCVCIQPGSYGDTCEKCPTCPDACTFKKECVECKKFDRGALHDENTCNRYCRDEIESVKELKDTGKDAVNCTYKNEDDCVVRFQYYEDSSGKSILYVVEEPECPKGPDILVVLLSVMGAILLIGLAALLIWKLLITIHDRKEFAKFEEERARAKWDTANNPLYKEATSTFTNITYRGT
# Protocol: Platelet aggregation assays are performed in human platelet rich plasma (PRP). Fifty milliliters of whole human blood (9 parts) is drawn on 3.6% sodium citrate (1 part) from a donor who has not taken aspirin or related medications for at least two weeks. The blood is centrifuged at 160×g for 10 minutes at 22° C. and allowed to stand for 5 minutes after which the PRP is decanted. Platelet poor plasma (PPP) is isolated from the remaining blood after centrifugation at 2000×g for 25 minutes. The platelet count of the PRP is diluted to about 300,000 platelets per microliter with PPP.
# A 225 μl aliquot of PRP plus 25 μl of either a dilution of the test inhibitor sample or a control (PBS) is incubated for 5 minutes in a Chrono-log Whole Blood Aggregometer at 25° C. An aggregating agent (collagen, 1 μg/ml; U46619, 100 ng/ml; or ADP, 17 μM) is added and the transmission is recorded.
# [2] = tested on: platelet rich plasma (PRP); assay: Rabbit ex-vivo platelet aggregation (XPA), ADP-induced; type: in vivo; settings: Example 1
# Protocol: (§1) Catheters are flushed and locked after every sample.
# […] of PRP is placed in a disposable glass cuvette with a stir bar. The cuvette is placed in the temperature regulated light path of a light transmittance aggregometer (Chrono-log) and equilibrated to a 37° C. Baseline transmittance is recorded for 30 seconds, after which […] of ADP (1 mM) is added and the change in transmittance recorded. The maximum change from baseline (dT) is noted for each sample. The extent of inhibition of XPA that is produced by an inhibitor is calculated for each animal as follows: Mean dTs are calculated for the pre and post infusion values, and then, percent inhibition is calculated as (1-dt (post)/ddt (pre))×100.
# [3] = tested on: New Zealand White rabbits; assay: Rabbit peripheral blood flow (PBF) by observation of ear vessels; type: in vivo
# Protocol: as §1
# For the experiments summarized in Table 1, PBF was monitored by observation of the condition of the blood vessels in the rabbits' ears, prior to and during the infusion. Normal flow is defined as ears that appear pink to red, with no visible constriction of the major blood vessels. Decreased flow applies to ears that have constricted vessels resulting in cold, pallid ears for up to 40 minutes following the start of the inhibitor infusion.
# [4] = tested on: platelet rich plasma (PRP); assay: Ex vivo platelet aggregation, dog model; type: in vivo; settings: 200 μg/kg bolus plus an infusion of 4.8 μg/kg/min
# Protocol: (§2) Beagle dogs were premedicated with atropine (3 mg subcutaneously) and anesthetized with intravenous sodium pentobarbital solution (65 mg/ml, to effect, induction and maintenance). The dogs were placed in dorsal recumbency on heating pads, intubated, and placed on oxygen-room air mixture (free breathing). A pulse oximeter was attached and heart rate and oxygen saturation monitored. An indwelling catheter was placed in one cephalic vein through which normal saline drip (for patency) and maintenance anesthetic doses were administered, and in one saphenous vein through which test or control compound was bolused or infused.
# At each proscribed time point a 5 ml whole blood sample was withdrawn via jugular venipuncture for ex vivo platelet aggregation and complete blood cell count. Manual pressure was applied to the venipuncture site following blood withdrawal to minimize hematoma formation.
# Approximately one ml of blood withdrawn at each timepoint was placed on EDTA (purple-top vacutainer) and used to measure the complete blood cell count on a Cell-Dyne 1500 automated hematology analyzer. 3.6 ml of blood withdrawn at each timepoint was placed on a 3.8% sodium citrate (1 part to 9 parts blood) and centrifuged at 12,000 rpm for 4 seconds in an Eppendorf microcentrifuge. The resultant platelet rich plasma (PRP) was pipetted off for use in ex vivo aggregation procedures.
# Platelet aggregation was measured in a Payton dual-channel aggregometer. The equipment was calibrated with PRP assigned as 0% light transmission and PPP as 100% light transmission. PRP was allowed to rest at room temperature for 20 minutes following separation from whole blood. […] PRP was incubated at 37° C. in the aggregometer for approximately 5 minutes with the chart recorder on to establish a baseline. […] ADP (1 mM) was added to the PRP and the aggregation response (change in light transmission) recorded. An aliquot of the PRP was used to perform a platelet count on the Cell-Dyne 1500 automated hematology analyzer. [drawing 50] Example 7, Compound 1
# Beagle dogs = assay: Bleeding time, dog model; type: in vivo
# Protocol: as §2
# At several timepoints bleeding times were measured. The forearm of the dog was closely shaven. A Surgicutt® automatic bleeding time device was employed to make an approximate 1 cm clean incision through the skin. Blood was blotted with the edge of a Whatman's #4 filter paper every 15 seconds. Bleeding time was measured as the time from incision to the last time blood was absorbed by the filter paper.
# [5] = human PRP, read-out: Human Platelet Aggregation IC50
SMILES,"IC50 [1, 5]",Rabbit % P.A. Inhibition (ex vivo) [2],other results
"N=C(N)NCCC[C@@H]1NC(=O)[C@@H](Cc2ccc(O)cc2)NC(=O)CCC[C@@H](C(=O)N[C@@H](CCCCN)C(N)=O)NC(=O)[C@H](CC(=O)O)NC(=O)CNC1=O [10/20, cyclo(1-5)dTyr--Arg--Gly--Asp--L-α-aminoadipic acid-Lys--NH2] ([dY]RGD[Aad]K-NH2; lactam N-5)",183 nM,100%,
"CC1(C)SCC(=O)N[C@H](Cc2ccc(O)cc2)C(=O)N[C@@H](CCCCN)C(=O)NCC(=O)N[C@@H](CC(=O)O)C(=O)N[C@@H]1C(=O)N[C@@H](CCCNC(=N)N)C(N)=O [7/16, cyclo-S-acetyl-dTyr--Lys--Gly--Asp--Pen--Arg--NH2] ({CH2CO}-[dY]KGD[Pen]R-NH2; thioether N-5)",500 nM and 506 nM,,"peripheral blood flow, result in words [3]: without substantial increased cutaneous bleeding time or decreased peripheral blood flow"
"N=C(N)NCCC[C@@H]1NC(=O)[C@@H](Cc2ccc(O)cc2)NC(=O)CSC[C@@H](C(=O)NCCCCCN)NC(=O)[C@H](CC(=O)O)NC(=O)CNC1=O [8/13, cyclo-S-acetyl-dTyr--Arg--Gly--Asp--Cys--NH--X (X = pentylamine)] ({CH2CO}-[dY]RGDC-{NH(CH2)5NH2}; thioether N-5)",590 nM,,
"N=C(N)NCCC[C@@H]1NC(=O)[C@@H](Cc2ccc(O)cc2)NC(=O)CSC[C@@H](C(=O)NCCCCC(=O)O)NC(=O)[C@H](CC(=O)O)NC(=O)CNC1=O [7/28, cyclo-S-(1-5)-dTyr--Arg--Gly--Asp--Cys--X (X = aminovaleric acid)] ({CH2CO}-[dY]RGDC[Ava]-OH; thioether N-5)",,,IC50 ([1]; read-out: platelet aggregation inhibition IC50): 52200 nM
"N=C(N)NCCC[C@@H]1NC(=O)[C@@H](Cc2ccc(O)cc2)NC(=O)CSC[C@@H](C(=O)NCCCN)NC(=O)[C@H](CC(=O)O)NC(=O)CNC1=O [8/22, cyclo-S-acetyl-dTyr--Arg--Gly--Asp--Cys--NH--X (X = propyl amine)] ({CH2CO}-[dY]RGDC-{NH(CH2)3NH2}; thioether N-5)",387 nM,,
"N=C(N)NCCC[C@@H]1NC(=O)[C@@H](Cc2ccc(O)cc2)NC(=O)C(CCCCN)SC[C@@H](C(=O)O)NC(=O)[C@H](CC(=O)O)NC(=O)CNC1=O (single isomer, unassigned) [9/10, cyclo-S-2-L-(6-aminocaproyl)-Lys--dTyr--Arg--Gly--Asp--Cys--OH]",498 nM,100%,
"N=C(N)NCCC[C@@H]1NC(=O)[C@@H](Cc2ccc(O)cc2)NC(=O)CSC[C@@H](C(=O)N[C@@H](CCCN)C(N)=O)NC(=O)[C@H](CC(=O)O)NC(=O)CNC1=O [7/5, cyclo-S-acetyl-dTyr--Arg--Gly--Asp--Cys--Orn--NH2] ({CH2CO}-[dY]RGDC[Orn]-NH2; thioether N-5)",,100%,"inhibition of aggregation [4]: > 90%; bleeding time, result in words (Beagle dogs; 200 μg/kg bolus plus an infusion of 4.8 μg/kg/min): minimal prolongation of bleeding"
"N=C(N)NCCC[C@@H]1NC(=O)[C@@H](Cc2ccc(O)cc2)NC(=O)CSC[C@@H](C(=O)N[C@@H](CCC(N)=O)C(N)=O)NC(=O)[C@H](CC(=O)O)NC(=O)CNC1=O [7/27, cyclo-S-acetyl-dTyr--Arg--Gly--Asp--Cys--Gln--NH2] ({CH2CO}-[dY]RGDCQ-NH2; thioether N-5)",1760 nM,72% and 99%,"platelet aggregation inhibition potency, result in words [1]: did not significantly improve potency"
"N=C(N)NCCC[C@H](NC(=O)[C@@H]1CSCC(=O)N[C@H](Cc2ccc(O)cc2)C(=O)N[C@@H](CCCNC(=N)N)C(=O)NCC(=O)N[C@@H](CC(=O)O)C(=O)N1)C(N)=O [7/1, cyclo-S-acetyl-dTyr--Arg--Gly--Asp--Cys--Arg--NH2] ({CH2CO}-[dY]RGDCR-NH2; thioether N-5)",80 nM and 83 nM,100%,"peripheral blood flow, result in words [3]: no substantial increase in cutaneous bleeding time (1.17 times; dosed to 100% inhibition of platelet aggregation) or decrease in peripheral blood flow; platelet aggregation inhibition potency, result in words [1]: equipotent; bleeding time, preinfusion value (Beagle dogs; before infusion (baseline)): 3 min; bleeding time during the infusion (Beagle dogs; dose printed for 7/46: bolus 125 μg/kg plus 3 μg/kg/min, 7/1 value is a mean): 6.25 min"
"N=C(N)NCCC[C@@H]1NC(=O)[C@@H](Cc2ccc(O)cc2)NC(=O)CSC[C@@H](C(=O)N[C@H](CCCN)C(N)=O)NC(=O)[C@H](CC(=O)O)NC(=O)CNC1=O [7/6, cyclo-S-acetyl-dTyr--Arg--Gly--Asp--Cys--dOrn--NH2] ({CH2CO}-[dY]RGDC[dOrn]-NH2; thioether N-5)",1180 nM,,
"N=C(N)NCCC[C@@H]1NC(=O)[C@@H](Cc2ccc(O)cc2)NC(=O)CSC[C@@H](C(=O)NCCN)NC(=O)[C@H](CC(=O)O)NC(=O)CNC1=O [8/23, cyclo-S-acetyl-dTyr--Arg--Gly--Asp--Cys--NH--X (X = ethyl amine)] ({CH2CO}-[dY]RGDC-Ethylenediamine; thioether N-5)",470 nM,,
"N=C(N)NCCC[C@H](NC(=O)[C@@H]1CCCC(=O)N[C@H](Cc2ccc(O)cc2)C(=O)N[C@@H](CCCNC(=N)N)C(=O)NCC(=O)N[C@@H](CC(=O)O)C(=O)N1)C(N)=O [10/19, cyclo(1-5)dTyr--Arg--Gly--Asp--L-α-aminoadipic acid-Arg--NH2] ([dY]RGD[Aad]R-NH2; lactam N-5)",180 nM and 205 nM,,
"N=C(N)NCCC[C@@H]1NC(=O)[C@@H](Cc2ccc(O)cc2)NC(=O)C(CCCCN)SC[C@@H](C(=O)O)NC(=O)[C@H](CC(=O)O)NC(=O)CNC1=O (single isomer, unassigned) [9/11, cyclo-S-2-L-(6-aminocaproyl)-Lys--dTyr--Arg--Gly--Asp--Cys--OH]",3180 nM,,
"CC1(C)SCC(=O)N[C@H](Cc2ccc(O)cc2)C(=O)N[C@@H](CCCCN)C(=O)NCC(=O)N[C@@H](CC(=O)O)C(=O)N[C@@H]1C(=O)N[C@@H](CCCCN)C(N)=O [7/17, cyclo-S-acetyl-dTyr--Lys--Gly--Asp--Pen--Lys--NH2] ({CH2CO}-[dY]KGD[Pen]K-NH2; thioether N-5)",90 nM,100%,"peripheral blood flow, result in words [3]: without substantial increased cutaneous bleeding time or decreased peripheral blood flow"
"N=C(N)NCCC[C@@H]1NC(=O)[C@@H](Cc2ccc(O)cc2)NC(=O)CSC[C@@H](C(=O)NCCCCN)NC(=O)[C@H](CC(=O)O)NC(=O)CNC1=O [8/12, cyclo-S-acetyl-dTyr--Arg--Gly--Asp--Cys--NH--X (X = butylamine)] ({CH2CO}-[dY]RGDC-{NH(CH2)4NH2}; thioether N-5)",390 nM,,
"N=C(N)NCCC[C@H](NC(=O)[C@H](Cc1ccc(O)cc1)NC(=O)[C@@H]1CSCC(=O)N[C@H](Cc2ccc(O)cc2)C(=O)N[C@@H](CCCNC(=N)N)C(=O)NCC(=O)N[C@@H](CC(=O)O)C(=O)N1)C(N)=O [7/7, cyclo-S-acetyl-dTyr--Arg--Gly--Asp--Cys--Tyr--Arg--NH2] ({CH2CO}-[dY]RGDCYR-NH2; thioether N-5)",,98%,
